# Test results taken from ChEMBL document CHEMBL1129358, “Esters and amides of 6-(chloromethyl)-2-oxo-2H-1-benzopyran-3-carboxylic acid as inhibitors of alpha-chymotrypsin: significance of the "aromatic" nature of the novel ester-type coumarin for strong inhibitory activity” (J Med Chem, 1996).
# Active and inactive are the calls of the source. The rule behind the calls is not given here.
# Assays:
# [1] = target: T1, Neutrophil elastase (Homo sapiens) (UniProt P08246); assay: Ratio between k observed and KI of Human leukocyte elastase (HEL)
# T1 sequence (whole entry): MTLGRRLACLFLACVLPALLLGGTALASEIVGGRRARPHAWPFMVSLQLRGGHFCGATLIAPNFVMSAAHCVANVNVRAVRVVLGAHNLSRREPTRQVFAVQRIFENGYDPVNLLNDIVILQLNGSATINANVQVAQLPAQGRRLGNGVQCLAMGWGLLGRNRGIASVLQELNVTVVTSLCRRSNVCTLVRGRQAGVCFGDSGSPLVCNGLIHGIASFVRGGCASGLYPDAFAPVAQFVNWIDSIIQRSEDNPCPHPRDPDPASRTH
# [2] = target: Chymotrypsinogen A (Bos taurus) (UniProt P00766); assay: Ratio between k inactivation and KI of alpha-chymotrypsin
# [3] = target: T1, Neutrophil elastase (Homo sapiens); assay: Ratio between k observed and KI of Human leukocyte elastase (HEL);[…]
# [4] = target: Chymotrypsinogen A (Bos taurus) (UniProt P00766); assay: Compound was tested for the Inactivation of alpha-chymotrypsin
# Chymotrypsinogen A = Chymotrypsinogen A (Bos taurus, UniProt P00766); assay: Compound was tested for the binding affinity against alpha-chymotrypsin
# [5] = tested on: alpha-chymotrypsin (Bos taurus); assay: Ratio between k observed and KI of bovine alpha-chymotrypsin at 20 degree C
# [6] = target: Chymotrypsinogen A (Bos taurus) (UniProt P00766); assay: Ratio between k inactivation and KI of alpha-chymotrypsin; No inhibition
Compound,K inact/Ki [2] [M⁻¹ s⁻¹],K obs / 1 [3],other results
CC(C)OC(=O)c1cc2cc(CCl)ccc2oc1=O,687,inactive,K inact [4]: 0.011 s⁻¹; Ki (Chymotrypsinogen A): 16 µM
O=c1ccc2cc(CBr)ccc2o1,–,–,K obs / 1 [5]: 12.5 M⁻¹ s⁻¹
CCCCCOC(=O)c1cc2cc(CCl)ccc2oc1=O,12,inactive,–
C=CCNC(=O)c1cc2cc(CCl)ccc2oc1=O,80,inactive,–
C=CCOC(=O)c1cc2cc(CCl)ccc2oc1=O,424,inactive,K inact [4]: 0.014 s⁻¹; Ki (Chymotrypsinogen A): 33 µM
CNC(=O)c1cc2cc(CCl)ccc2oc1=O,–,inactive,K inact/Ki [6]: inactive
COC(=O)C(Cc1ccccc1)NC(=O)c1cc2cc(CCl)ccc2oc1=O (stereo unspecified),80,inactive,–
COC(=O)c1cc2cc(CCl)ccc2oc1=O,110,inactive,–
O=C(O)c1cc2cc(CCl)ccc2oc1=O,–,inactive,K inact/Ki [6]: inactive
COC(=O)CNC(=O)c1cc2cc(CCl)ccc2oc1=O,12,inactive,–
CCOC(=O)c1cc2cc(CCl)ccc2oc1=O,220,inactive,K inact [4]: 0.013 s⁻¹; Ki (Chymotrypsinogen A): 59 µM
CC(C)NC(=O)c1cc2cc(CCl)ccc2oc1=O,–,inactive,K inact/Ki [6]: inactive
CCCCCNC(=O)c1cc2cc(CCl)ccc2oc1=O,–,inactive,K inact/Ki [6]: inactive
CCCCCCCCOC(=O)c1cc2cc(CCl)ccc2oc1=O,190,inactive,–
CCCCCCCCCCNC(=O)c1cc2cc(CCl)ccc2oc1=O,–,inactive,–
Cc1ccc2oc(=O)c(C(=O)Oc3ccccc3)cc2c1,–,–,K inact/Ki [6]: inactive; K obs / 1 [1]: 330 M⁻¹ s⁻¹

# The next lines start with results.
K inact/Ki [2] [M⁻¹ s⁻¹],K obs / 1 [3],Compound,other results
24,–,O=C(NCc1ccccc1)c1cc2cc(CCl)ccc2oc1=O,K obs / 1 [1]: 58 M⁻¹ s⁻¹
71800,inactive,Cc1cccc(OC(=O)c2cc3cc(CCl)ccc3oc2=O)c1,–
763000,–,O=C(Oc1cccc(Cl)c1)c1cc2cc(CCl)ccc2oc1=O,K obs / 1 [1]: 630 M⁻¹ s⁻¹
100000,–,O=C(Oc1ccccc1)c1cc2cc(CCl)ccc2oc1=O,K inact [4]: 0.034 s⁻¹; K obs / 1 [1]: 23 M⁻¹ s⁻¹; Ki (Chymotrypsinogen A): 0.34 µM
48100,–,O=C(Oc1ccccc1Cl)c1cc2cc(CCl)ccc2oc1=O,K inact [4]: 0.038 s⁻¹; K obs / 1 [1]: 23 M⁻¹ s⁻¹; Ki (Chymotrypsinogen A): 0.79 µM
7550,–,Cc1cc(OC(=O)c2cc3cc(CCl)ccc3oc2=O)ccc1Cl,K obs / 1 [1]: 90 M⁻¹ s⁻¹
330,inactive,O=C(Oc1ccc(Cl)cc1)c1cc2cc(CCl)ccc2oc1=O,–
80000,–,O=C(Oc1ccccc1I)c1cc2cc(CCl)ccc2oc1=O,K inact [4]: 0.02 s⁻¹; K obs / 1 [1]: 85 M⁻¹ s⁻¹; Ki (Chymotrypsinogen A): 0.25 µM
114000,inactive,Cc1ccccc1OC(=O)c1cc2cc(CCl)ccc2oc1=O,K inact [4]: 0.043 s⁻¹; Ki (Chymotrypsinogen A): 0.38 µM
32,inactive,O=C(Nc1ccccc1)c1cc2cc(CCl)ccc2oc1=O,–
186,inactive,O=C(OCc1ccccc1)c1cc2cc(CCl)ccc2oc1=O,–
72100,–,O=C(Oc1cccc(I)c1)c1cc2cc(CCl)ccc2oc1=O,K obs / 1 [1]: 85 M⁻¹ s⁻¹
1780,inactive,O=C(Oc1ccc(I)cc1)c1cc2cc(CCl)ccc2oc1=O,–
6,inactive,O=C(NCCc1ccccc1)c1cc2cc(CCl)ccc2oc1=O,–
11300,–,O=C(Oc1cccc([N+](=O)[O-])c1)c1cc2cc(CCl)ccc2oc1=O,K obs / 1 [1]: 500 M⁻¹ s⁻¹
685,inactive,Cc1ccc(OC(=O)c2cc3cc(CCl)ccc3oc2=O)cc1,–
